Drawing on PMC4220732 (Frontiers in Cellular and Infection Microbiology, 2014), this text covers Kd for one compound.

In this test the target is T1, PefR (GAS PefR) (Streptococcus pyogenes, UniProt Q9A1K6).
T1 construct: gene SPy_0228; full ORF, N-terminal 6xHis tag (pRham N-His, pAJS11), tag cleavage not mentioned; expressed in E. coli (E. cloni 10G); as purified carries some heme
Kind of test: UV-visible absorbance titration at […] nm, linear fit. The class given is binding.

T1 sequence (Q9A1K6 entry or part of it): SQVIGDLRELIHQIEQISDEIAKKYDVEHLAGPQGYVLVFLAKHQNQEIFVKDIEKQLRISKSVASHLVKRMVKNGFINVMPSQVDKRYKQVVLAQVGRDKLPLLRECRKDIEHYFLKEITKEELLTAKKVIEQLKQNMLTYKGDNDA

A word on the Kd: it is the concentration at which binding is half-saturated. A higher Kd goes with weaker binding. The compound `C=CC1=C(C)c2cc3[nH]c(cc4nc(cc5[nH]c(cc1n2)c(C)c5CCC(=O)O)C(CCC(=O)O)=C4C)c(C)c3C=C` [PPIX] came in with a Kd of 9 µM.
